Data taken from patent publication US20250049777A1, “PHARMACEUTICALLY ACCEPTABLE SALT AND CRYSTALLINE FORM OF GLP-1 RECEPTOR AGONIST AND PREPARATION METHOD THEREFOR” (JIANGSU HENGRUI PHARMACEUTICALS CO., LTD., priority 2021, published 2025).
Counter-ions that a name gives are not always drawn. Like-named read-outs stand apart in the source and are kept apart here.

Columns and labels:
[1] = Stability of crystal forms of salts under influencing factors (illumination, high temperature, high humidity); format: physicochemical
Source text: The sampling and investigation period was 30 days.

[2] = format: physicochemical
Experimental: A salt-type sample was sealed with an aluminum foil bag and placed under the conditions of 25° C./60% RH and 40° C./75% RH, respectively, to investigate the stability.

[3] = Illumination (4500 Lux), 5 days, open
[4] = Illumination (4500 Lux), 10 days, open
[5] = Illumination (4500 Lux), 30 days, open

O=C(O)c1ccc2nc(CN3CCC(c4cccc5c4O[C@@H](c4ccc(Cl)cc4F)CO5)CC3)n(C[C@@H]3CCO3)c2c1 [Crystal form I of hydrochloride salt, 2-((4-((S)-3-(4-chloro-2-fluorophenyl)-2,3-dihydrobenzo[b][1,4]dioxan-5-yl)piperidin-1-yl)methyl)-1-(((S)-oxetan-2-yl)methyl)-1H-benzo[d]imidazole-6-carboxylic acid]
% Purity ([1]; 40° C., 5 days, open): 98.0% | Crystal form ([1]; 40° C., 5 days, open): Unchanged | % Purity ([1]; 40° C., 10 days, open): 98.1% | Crystal form ([1]; 40° C., 10 days, open): Unchanged | % Purity ([1]; 40° C., 30 days, open): 97.8% | Crystal form ([1]; 40° C., 30 days, open): Unchanged | % Purity ([1]; 60° C., 5 days, open): 97.6% | Crystal form ([1]; 60° C., 5 days, open): Unchanged | % Purity ([1]; 60° C., 10 days, open): 97.7% | Crystal form ([1]; 60° C., 10 days, open): Unchanged | % Purity ([1]; 60° C., 30 days, open): 97.7% | Crystal form ([1]; 60° C., 30 days, open): Unchanged | % Purity ([1]; 75% RH, 5 days, open): 98.1% | Crystal form ([1]; 75% RH, 5 days, open): Unchanged | % Purity ([1]; 75% RH, 10 days, open): 98.0% | Crystal form ([1]; 75% RH, 10 days, open): Unchanged | % Purity ([1]; 75% RH, 30 days, open): 98.1% | Crystal form ([1]; 75% RH, 30 days, open): Unchanged | % Purity ([1]; 92.5% RH, 5 days, open): 98.1% | Crystal form ([1]; 92.5% RH, 5 days, open): Unchanged | % Purity ([1]; 92.5% RH, 10 days, open): 97.4% | Crystal form ([1]; 92.5% RH, 10 days, open): Unchanged | % Purity ([1]; 92.5% RH, 30 days, open): 96.9% | Crystal form ([1]; 92.5% RH, 30 days, open): Unchanged | % Purity [1, 3]: 97.9% | Crystal form [1, 3]: Unchanged | % Purity [1, 4]: 98.1% | Crystal form [1, 4]: Unchanged | % Purity [1, 5]: 98.0% | Crystal form [1, 5]: Unchanged | % Purity ([1]; Initial condition, 0 days): 98.0% | physical and chemical stability [2]: good physical and chemical stability | % Purity ([2]; 25° C./60% RH, 1 month, sealed aluminum foil bag): 98.1% | % Purity ([2]; 25° C./60% RH, 2 months, sealed aluminum foil bag): 97.9% | Crystal form ([2]; 25° C./60% RH, sealed aluminum foil bag): Unchanged | % Purity ([2]; 40° C./75% RH, 1 month, sealed aluminum foil bag): 97.8% | % Purity ([2]; 40° C./75% RH, 2 months, sealed aluminum foil bag): 97.8% | Crystal form ([2]; 40° C./75% RH, sealed aluminum foil bag): Unchanged | % Purity ([2]; Initial condition): 98.0%

O=C(O)c1ccc2nc(CN3CCC(c4cccc5c4O[C@@H](c4ccc(Cl)cc4F)CO5)CC3)n(C[C@@H]3CCO3)c2c1 [Crystal form α of malate salt, 2-((4-((S)-3-(4-chloro-2-fluorophenyl)-2,3-dihydrobenzo[b][1,4]dioxan-5-yl)piperidin-1-yl)methyl)-1-(((S)-oxetan-2-yl)methyl)-1H-benzo[d]imidazole-6-carboxylic acid]
% Purity ([1]; 92.5% RH, 5 days, open, listed as crystal form a of malate salt): 99.0% | % Purity ([1]; Initial condition, 0 days, listed as crystal form a of malate salt): 99.0% | % Purity ([2]; 40° C./75% RH, 3 months, sealed aluminum foil bag): 97.1% | % Purity ([2]; Initial condition): 99.0%
